In US20220071210A1, “FUNGICIDAL MIXTURE” (Adama Makhteshim Ltd., priority 2018, published 2022):

Test system: Ramularia collo-cygni
Test: Fungicidal control of Ramularia collo-cygni on winter barley (spray treatments, alone and tank mix)
Format: in vivo
Conditions: sprayed twice 14 days apart, rate (gr A.I./ha) as in table; for % control observed, 38 Days after 2nd application: untreated severity 85.6%; for % control observed, 44 Days after 2nd application: untreated severity 100%
Procedure: An experiment was conducted to evaluate the fungicidal control of Ramularia collo-cygni on winter barley with a dehydrogenase inhibitor fungicide (fluxapyroxad), and folpet, alone, and in binary mixtures.
The experiments were conducted by applying a commercially available composition of fluxapyroxad (Imtrex®) and folpet (MCW-296 SC) alone or together. The compositions were diluted with water to the stated concentration of the active compound.
The following active ingredients and their mixtures were evaluated: • Fluxapyroxad 90 gr (A.I.)/ha • Folpet 750 gr (A.I.)/ha • Fluxapyroxad+Folpet 90 gr (A.I.)/ha+750 gr (A.I.)/ha
To test for fungicidal control of Ramularia collo-cygni, the winter barley was sprayed with each of the above treatments. Each of the above treatments were applied twice, the 2nd treatment occurring 14 days after the first treatment. The treatments were composed of 4 replicates.
Evaluations were performed at 38 days and 44 days after the second treatment. At these times the severity of the Ramularia collo-cygni was determined. At the time of the 1st evaluation (38 days after the second treatment) the severity of the infection of Ramularia collo-cygni on the winter barley was 85.6%. At the time of the 2nd evaluation (44 days after the second treatment) the severity was 100%.
The visually determined percentages of infected leaf areas may be converted into efficacies in % of the untreated control:
The efficacy (E) is calculated as follows using Abbott's formula: […]
A corresponds to the fungicidal infection of the treated plants in % and B corresponds to the fungicidal infection of the untreated (control) plants in %.
An efficacy of 0 means that the infection level of the treated plants corresponds to that of the untreated control plants; an efficacy of 100 means that the treated plants are not infected.
In the field of agriculture, it is often understood that the term “synergy” is as defined by Colby S. R. in an article entitled “Calculation of the synergistic and antagonistic responses of herbicide combinations” published in the journal Weeds, 1967, 15, p. 20-22. The action expected for a given combination of two active components can be calculated as follows: […]
in which E represents the expected percentage of fungicidal control for the combination of the two fungicides at defined doses (for example equal to x and y respectively), X is the percentage of fungicidal control observed by the compound (I) at a defined dose (equal to x), Y is the percentage of fungicidal control observed by the compound (II) at a defined dose (equal to y). When the percentage of fungicidal control observed for the combination is greater than the expected percentage, there is a synergistic effect.

SMILES | % control observed, 38 Days after 2nd application [%] | % control observed, 44 Days after 2nd application [%]
Cn1cc(C(=O)Nc2ccccc2-c2cc(F)c(F)c(F)c2)c(C(F)F)n1 [Fluxapyroxad, fluxapyroxad] | 47.1 | 12.2
O=C1c2ccccc2C(=O)N1SC(Cl)(Cl)Cl [Folpet, folpet] | 30.3 | 9.7
